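Protocol summary: plate cells (96-well), add compound at 5 concentrations, incubate 48 h, interpolate endpoints linearly. GI50 marks 50% less growth. Definition used: TGI = concentration required for complete inhibition of growth.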
How the values were obtained:
Assay in all cases: inhibition of tumour cell growth, NCI panel, 48 h; in the data active = GI50 below about 0.43 µM; inactive = the rest
HS 578T breast = test system: HS 578T breast
KM12 colon = test system: KM12 colon
SNB-75 CNS = test system: SNB-75 CNS
CAKI-1 renal = test system: CAKI-1 renal
HCC-2998 colon = test system: HCC-2998 colon
MOLT-4 leukemia = test system: MOLT-4 leukemia
MALME-3M melanoma = test system: MALME-3M melanoma
OVCAR-5 ovarian = test system: OVCAR-5 ovarian
HOP-92 NSCLC = test system: HOP-92 NSCLC
SF-268 CNS = test system: SF-268 CNS
SN12C renal = test system: SN12C renal
HCT-15 colon = test system: HCT-15 colon
HOP-62 NSCLC = test system: HOP-62 NSCLC
MCF7 breast = test system: MCF7 breast
M14 melanoma = test system: M14 melanoma
UACC-257 melanoma = test system: UACC-257 melanoma
NCI-H460 lung = test system: NCI-H460 lung
NCI-H522 lung = test system: NCI-H522 lung
NCI-H23 lung = test system: NCI-H23 lung
OVCAR-8 ovarian = test system: OVCAR-8 ovarian
UO-31 renal = test system: UO-31 renal
COLO 205 colon = test system: COLO 205 colon
SK-MEL-2 melanoma = test system: SK-MEL-2 melanoma
A549 NSCLC = test system: A549 NSCLC
EKVX NSCLC = test system: EKVX NSCLC
NCI/ADR-RES ovarian = test system: NCI/ADR-RES ovarian
HT29 colon = test system: HT29 colon
SF-539 CNS = test system: SF-539 CNS
ACHN renal = test system: ACHN renal
RXF 393 renal = test system: RXF 393 renal
SK-OV-3 ovarian = test system: SK-OV-3 ovarian
HCT-116 colon = test system: HCT-116 colon
SK-MEL-28 melanoma = test system: SK-MEL-28 melanoma
PC-3 prostate = test system: PC-3 prostate
786-0 renal = test system: 786-0 renal
NCI-H226 lung = test system: NCI-H226 lung
T-47D breast = test system: T-47D breast
U251 CNS = test system: U251 CNS
MDA-MB-435 = test system: MDA-MB-435
HL-60(TB) leukemia = test system: HL-60(TB) leukemia
TK-10 renal = test system: TK-10 renal
MDA-MB-231 breast = test system: MDA-MB-231 breast
BT-549 breast = test system: BT-549 breast
SNB-19 CNS = test system: SNB-19 CNS
IGROV1 ovarian = test system: IGROV1 ovarian

C=CC1CC12C(=O)C1OC2(C)C2C(=O)c3cc4ccccc4cc3C(=O)C12 (stereo not given)
46.4 µM: TGI (MDA-MB-231 breast)
38 µM: TGI (RXF 393 renal)
92.3 µM: TGI (OVCAR-8 ovarian)
62.6 µM: TGI (BT-549 breast)
77.8 µM: TGI (MDA-MB-435)
42.1 µM: TGI (ACHN renal)
95.4 µM: TGI (NCI/ADR-RES ovarian)
35.7 µM: TGI (CAKI-1 renal)
> 100 µM: TGI (SNB-75 CNS) | TGI (HCC-2998 colon) | TGI (MOLT-4 leukemia) | TGI (OVCAR-5 ovarian) | TGI (SF-268 CNS) | TGI (SN12C renal) | TGI (HOP-62 NSCLC) | TGI (MCF7 breast) | TGI (M14 melanoma) | TGI (NCI-H460 lung) | TGI (NCI-H522 lung) | TGI (NCI-H23 lung) | TGI (UO-31 renal) | TGI (COLO 205 colon) | TGI (SK-MEL-2 melanoma) | TGI (A549 NSCLC) | TGI (EKVX NSCLC) | TGI (HT29 colon) | TGI (SK-OV-3 ovarian) | TGI (HCT-116 colon) | TGI (SK-MEL-28 melanoma) | TGI (PC-3 prostate) | TGI (T-47D breast) | TGI (SNB-19 CNS) | TGI (IGROV1 ovarian)
95.3 µM: TGI (HOP-92 NSCLC)
65.3 µM: TGI (HL-60(TB) leukemia)
83 µM: TGI (786-0 renal)
79.8 µM: TGI (NCI-H226 lung)
56.7 µM: TGI (U251 CNS)
57.4 µM: TGI (MALME-3M melanoma)
58.7 µM: TGI (KM12 colon)
92 µM: TGI (HS 578T breast)
96.9 µM: TGI (SF-539 CNS)
inactive: GI50 (HS 578T breast) 27 µM | GI50 (KM12 colon) 21.8 µM | GI50 (SNB-75 CNS) 35.5 µM | GI50 (CAKI-1 renal) 12 µM | GI50 (HCC-2998 colon) 24.6 µM | GI50 (MOLT-4 leukemia) 15.8 µM | GI50 (MALME-3M melanoma) 16.8 µM | GI50 (OVCAR-5 ovarian) 61.2 µM | GI50 (HOP-92 NSCLC) 20.9 µM | GI50 (SF-268 CNS) 26.7 µM | GI50 (SN12C renal) 27.8 µM | GI50 (HCT-15 colon) 11.9 µM | GI50 (HOP-62 NSCLC) 75.9 µM | GI50 (MCF7 breast) 16.1 µM | GI50 (M14 melanoma) 37.8 µM | GI50 (UACC-257 melanoma) 21.5 µM | GI50 (NCI-H460 lung) 26.9 µM | GI50 (NCI-H522 lung) 29.3 µM | GI50 (NCI-H23 lung) 25.9 µM | GI50 (OVCAR-8 ovarian) 24.2 µM | GI50 (UO-31 renal) 53.3 µM | GI50 (COLO 205 colon) 44.7 µM | GI50 (SK-MEL-2 melanoma) 45.8 µM | GI50 (A549 NSCLC) 38.3 µM | GI50 (EKVX NSCLC) 16.8 µM | GI50 (NCI/ADR-RES ovarian) 26.9 µM | GI50 (HT29 colon) 27.5 µM | GI50 (SF-539 CNS) 30.2 µM | GI50 (ACHN renal) 16.9 µM | GI50 (RXF 393 renal) 11.1 µM | GI50 (SK-OV-3 ovarian) 48.1 µM | GI50 (HCT-116 colon) 33.5 µM | GI50 (SK-MEL-28 melanoma) 24.7 µM | GI50 (PC-3 prostate) 20.3 µM | GI50 (786-0 renal) 23.4 µM | GI50 (NCI-H226 lung) 21.5 µM | GI50 (T-47D breast) 23.1 µM | GI50 (U251 CNS) 21.1 µM | GI50 (MDA-MB-435) 26.3 µM | GI50 (HL-60(TB) leukemia) 24.7 µM | GI50 (TK-10 renal) 31.8 µM | GI50 (MDA-MB-231 breast) 16 µM | GI50 (BT-549 breast) 25 µM | GI50 (SNB-19 CNS) 56.7 µM | GI50 (IGROV1 ovarian) 39 µM
42.7 µM: TGI (HCT-15 colon)
65.5 µM: TGI (UACC-257 melanoma)
97.1 µM: TGI (TK-10 renal)
